From PubChem BioAssay (NCI) come the findings set out here.

SMILES strings stand for the structures.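 Cells were grown in 96-well plates and exposed to each compound for 48 hours at five concentrations; endpoints were interpolated linearly between bracketing concentrations, or set to the highest concentration if not reached. The concentration for 50% growth inhibition is given as GI50. At the TGI there is no net growth.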 Some results are limits rather than exact numbers.

Test systems include DU-145 prostate; OVCAR-8 ovarian; HCT-116 colon; UO-31 renal; HCC-2998 colon; CAKI-1 renal; HOP-92 NSCLC; KM12 colon; UACC-257 melanoma; SNB-19 CNS.
Common to all, as to experiment: NCI tumour cell line growth inhibition, 48 h

Consider `CC(=O)OCC1OC(n2ccc(=O)[nH]c2=O)C(OC(C)=O)C1OC(C)=O` (stereo not given), for which the GI50 with DU-145 prostate, with OVCAR-8 ovarian, with HCT-116 colon, in the test on UO-31 renal, in the test on HCC-2998 colon and in the test with CAKI-1 renal was more than 100 µM throughout. Also, the GI50 in the test with HOP-92 NSCLC, in the test on KM12 colon, with UACC-257 melanoma and in the test with SNB-19 CNS was more than 100 µM in each case. The TGI with DU-145 prostate, in the test on OVCAR-8 ovarian, in the test with HCT-116 colon, in the test with UO-31 renal, with HCC-2998 colon and in the test on CAKI-1 renal was more than 100 µM throughout. Moreover, the TGI in the test with HOP-92 NSCLC, with KM12 colon, with UACC-257 melanoma and in the test with SNB-19 CNS was more than 100 µM in each case.
Turning to `Cc1cc2c3ccccc3n(C)c2c2c1C(=O)C=CC2=O`, the TGI in the test on DU-145 prostate turned out to be 44.5 µM; with OVCAR-8 ovarian it was 62.7 µM; in the test on HCT-116 colon, 39.2 µM; with UO-31 renal it was 46.4 µM; with HCC-2998 colon, 39.8 µM; with CAKI-1 renal it was 28.9 µM. In addition, the TGI stood at 25 µM in the test with HOP-92 NSCLC, 33.6 µM in the test with KM12 colon, 18.7 µM with UACC-257 melanoma and 73 µM with SNB-19 CNS.
In the case of `CN(C)c1ccc2cc(-c3ccccc3F)c(N)nc2c1`, the GI50 in the test with DU-145 prostate is 3.09 µM; with OVCAR-8 ovarian it was 3.71 µM; with HCT-116 colon it was 0.454 µM; with UO-31 renal, 3.16 µM; in the test with HCC-2998 colon, 3.18 µM; with CAKI-1 renal, 3.17 µM. The GI50 with HOP-92 NSCLC was 1.4 µM; with KM12 colon it was 0.89 µM; with UACC-257 melanoma, 6.12 µM; in the test with SNB-19 CNS it was 3.1 µM. Also, the TGI with DU-145 prostate was determined as 13.2 µM; in the test on OVCAR-8 ovarian it was 15.8 µM; in the test on HCT-116 colon, 11 µM; in the test with UO-31 renal it was 16.5 µM; in the test on HCC-2998 colon, 17.6 µM; in the test on CAKI-1 renal it was 21 µM. Moreover, the TGI was determined as 9.7 µM in the test on HOP-92 NSCLC, 14.9 µM in the test on KM12 colon, 18.3 µM in the test with UACC-257 melanoma and 19.2 µM in the test with SNB-19 CNS.
